# US20060154993A1, “Method for treating and preventing male infertility” (priority 2004, published 2006)
# Several values for one entry are separate records, joined by “and”; a condition that tells them apart may be missing. Identical values can stand only once. Marks after values point to notes of the source that are not given here.
# How the values were obtained:
# [1] = CoQ10 levels in seminal plasma and sperm cells by HPLC-EC, idiopathic asthenospermia patients on CoQ10; format: in vivo, human
# Experimental: (§1) Twenty-two patients (mean age, 31 years; range, 25-39 years) with idiopathic asthenospermia were enrolled in the study. The patients were selected at the Andrology Unit of the Division of Endocrinology, Umberto I Hospital, University of Ancona, Ancona, Italy. All subjects underwent medical screening, including history and clinical examination, and presented with a clinical history of primary infertility of at least 3 years. Testicular volume was evaluated in each patient using Prader's orchidometer. To accomplish a complete diagnosis, the following investigations were also performed: semen analysis; Mar-test (SperMar test, Diasint, Florence, Italy) for anti-spermatozoa antibodies (Ab); sperm culture and urethral specimens collection for Chlamydia and Mycoplasma ureoliticum detection; FSH, LH, T, E2, and PRL assays, using commercial RIA kits; and testicular, prostatic, and seminal vesicle ultrasound and echo-color Doppler of venous spermatic plexus for anatomical abnormalities and varicocele detection.
# (§2) The enrolled patients underwent dietary implementation of CoQ10 (PharmaNord, Veyle, Denmark), 200 mg/day twice daily orally for 6 months. Clinical examination, semen analysis including computer-assisted sperm analysis (CASA), and CoQ10 and PC assays were performed at baseline and after 6 months of therapy. An additional semen analysis was performed 6 months after the termination of therapy (wash-out). This study was approved by the Institutional Review Board of the University of Ancona-Umberto I Hospital. All patients provided their written informed consent and completed the entire trial.
# The liquefied semen samples were centrifuged at room temperature at 500×g for 18 minutes. The sperm cell pellet was washed with 0.15 M NaCl. Two hundred fifty microliters of 1-propanol were added to 50 μL of a cellular suspension containing 10^6 sperm cells or to 50 μL of seminal plasma. After mixing for 1 minute, the samples were centrifuged for 5 minutes at 2,000×g and the obtained supernatants were injected into the high pressure liquid chromatography (HPLC) apparatus. […]
# CoQ10 levels were assayed in sperm cells and seminal plasma using a Beckman Gold HPLC System (Beckman Instruments, San Ramon, Calif.) equipped with an electrochemical detector (EC, ESA 5100, Bedford, Mass.) as described elsewhere. The detector was supplied with a guard cell and an analytical cell with two electrodes in series; the potentials applied to the electrodes were, respectively, +0.6V, −0.45V, and +0.6V; chromatograms were recorded from the second analytical cell signal. One hundred microliters of samples were directly injected into the analytical column and analyzed; an analytical column was a Supelcosil reverse-phase C18, 15 cm×0.46 cm ID, 3 μm (Supelco, Inc., Bellefonte, Pa.). […]
# [2] = Phosphatidylcholine (PC) levels in seminal plasma and sperm cells by HPLC-UV after CoQ10 treatment; format: in vivo, human; conditions: after 6 months CoQ10 orally, mean ± SD, P<0.05
# Experimental: as §2
# Analysis of PC was performed according to Frei et al. with the modification described by Yamamoto et al. After adding 1 mL of methanol to a cellular suspension containing about 10^6 sperm cells or to 50 μL of seminal plasma, samples were mixed for 1 minute; then 6 mL of hexane were added and samples were mixed again before centrifugation (10 minutes at 500 g). Supernatant was collected and dried with a nitrogen stream. Dried sample residues were dissolved in 300 μL of ethanol.
# Phosphatidylcholine was essentially determined according to Frei et al. An analytical column was a Supelcosil LCSi, 25 cm×0.46 cm ID, 5 μm (Supelco). A Jasco HPLC System (Jasco Corporation, Tokyo, Japan) provided with two PU-980 pumps, and a UV detector set at 205 nm wavelength was used for detention of total PC.
# sperm cells [3] = assay: Seminal fluid analysis (WHO criteria): sperm concentration, motility, morphology; format: in vivo, human; conditions: for Sperm concentration / Teratozoospermia: NS
# Experimental: as §2
# Semen quality was assessed by the same biologist in terms of sperm concentration, motility, and morphology in accordance with WHO criteria. Briefly, seminal fluid was obtained by masturbation after 3-5 days of sexual abstinence. The samples were kept in the andrology lab at room temperature and processed within 1 hour from ejaculation. Sperm count was determined with the Makler chamber. Motile spermatozoa were assessed by phase contrast microscopy (10 μL of semen was delivered onto a glass slide and covered with a 22 mm×22 mm coverslip) and graded as follows: class a and b, fast and weak forward motility; class c, nonprogressive motility; class d, immobile spermatozoa. Sperm morphology was evaluated on smears of seminal fluid, stained with the Giemsa method, and observed by oil immersion light microscopy. Conventional immunocytochemistry was used to assess WBC.
# sperm cells [4] = assay: Computer-assisted sperm analysis (CASA) of sperm cell motility; format: in vivo, human; conditions: after 6 months treatment, P<0.05; for Straight progressive velocity (VSL): baseline 15.20 ± 1.30; for Curvilinear velocity (VCL): baseline 26.31 ± 1.50
# Experimental: as §2
# In addition, CASA for sperm cell motility was performed, as reported elsewhere. One semen aliquot (3 μL) was placed in a 20-μm depth chamber. Two 20-μm depth cell-VU chambers (Conception Technologies, La Jolla, Calif.) were loaded, and six different fields per chamber were randomly examined and at least 200 sperm for each field of the chamber were scored. Percentages of motile sperm and movement characteristics were analyzed using an automated analyzer at 37° C. (CellTrack VP 110, Motion Analysis Corporation, Palo Alto, Calif.). Sperm velocity and kinetic characteristics were evaluated only for motile sperm and expressed as mean values considering curvilinear velocity (VCL) and straight progressive velocity (VSL).
# [5] = test system: idiopathic asthenospermia; assay: Spontaneous pregnancy after CoQ10 therapy; format: in vivo, human; conditions: within 3 months of the discontinuation of therapy
# Experimental: as §1
# There was no apparent female factor, since all partners (mean age, 28 years; range, 23-35 years) were ovulating regularly as formally proven by luteal phase progesterone (P) levels and no abnormal fallopian tube anatomy was detected after hysterosalpingography. […]
# Safety assessment = format: in vivo, human; conditions: oral administration, 6 months
# Description: Safety assessment included medical history, physical examination, hematological screening, and serum chemistry at all visits and the monitoring of drug-related adverse events by recordation in patient diaries.
# [6] = after chronic administration of the quinone; commonly found; cited from earlier work
# [7] = after 6 months wash-out, listed as coenzyme Q10
structure (smiles),measurement,setting,value
"COC1=C(OC)C(=O)C(C/C=C(\C)CC/C=C(\C)CC/C=C(\C)CC/C=C(\C)CC/C=C(\C)CC/C=C(\C)CC/C=C(\C)CC/C=C(\C)CC/C=C(\C)CCC=C(C)C)=C(C)C1=O [CoQ10, ubiquinone]","CoQ10, seminal plasma","[1]; after 6 months CoQ10 200 mg/day twice daily orally, baseline 42.0 ± 5.1, mean ± SD, P<0.005",127.1 ± 1.9^a ng/mL
same,"CoQ10, sperm cells","[1]; after 6 months CoQ10 orally, baseline 3.1 ± 0.4, mean ± SD, P<0.05",6.5±0.3 ng/10^6 cells and 6.5 ± 0.3^b ng/10^6 cells
same,seminal plasma CoQ10 post-treatment level relative to basal,[1]; after 6 months treatment,3 times
same,concentration at 6 months,"[1]; male, human, seminal plasma, po, after 6 months CoQ10 200 mg/day twice daily orally, baseline 42.0 ± 5.1, mean ± SD, P<0.005",127 ± 1.9 ng/mL
same,"PC, seminal plasma",[2]; baseline 1.49 ± 0.50,5.84±1.15 μM and 5.84 ± 1.15^b μM
same,"PC, sperm cells",[2]; baseline 6.83 ± 0.98,9.67±1.23 nmol/10^6 cells and 9.67 ± 1.23^b nmol/10^6 cells
same,Forward Motility (class a+b),"sperm cells [3]; after 6 months treatment, baseline 9.13 ± 2.50, P<0.05",16.34%±3.43
same,Forward Motility (class a+b),"sperm cells [3]; after 6 months treatment, baseline 9.13 ± 2.50, P<0.05, listed as coenzyme Q10",16.34 ± 3.43^a %
same,Sperm concentration,"sperm cells [3]; after 6 months treatment, baseline 27.60 ± 7.41",No significant differences
same,Sperm concentration,"sperm cells [3]; after 6 months treatment, baseline 27.60 ± 7.41, listed as coenzyme Q10","25.92 ± 5.63, NS 106/mL"
same,Teratozoospermia,"sperm cells [3]; after 6 months treatment, baseline 69.76 ± 4.63",No significant differences
same,Teratozoospermia,"sperm cells [3]; after 6 months treatment, baseline 69.76 ± 4.63, listed as coenzyme Q10","67.82 ± 7.44, NS %"
same,Forward Motility (class a+b),sperm cells [3]; after 6 months wash-out,9.50% ±2.28
same,Sperm concentration,sperm cells [3]; after 6 months wash-out,no significant differences
same,Teratozoospermia,sperm cells [3]; after 6 months wash-out,no significant differences
same,Sperm concentration,sperm cells [3]; [7],"26.18 ± 4.04, NS 106/mL"
same,Teratozoospermia,sperm cells [3]; [7],"66.23 ± 5.34, NS %"
same,Forward Motility (class a+b),sperm cells [3]; [7],9.50 ± 2.28^b %
same,Straight progressive velocity (VSL),sperm cells [4],20.40±2.17 um/second
same,Straight progressive velocity (VSL),sperm cells [4]; listed as coenzyme Q10,20.40 ± 2.17^a um/second
same,Curvilinear velocity (VCL),sperm cells [4],46.43±2.28 um/second
same,Curvilinear velocity (VCL),sperm cells [4]; listed as coenzyme Q10,46.43 ± 2.28^a um/second
same,patients who achieved spontaneous pregnancy,[5]; three out of 22 patients,13.6%
same,pregnancy rate per cycle,[5],2.4%
same,laboratory abnormalities,Safety assessment,no laboratory abnormalities were observed
same,tolerability,Safety assessment,generally well tolerated
same,increase of CoQ10 concentration in blood plasma compared with baseline value,[6],2-3 times
